Twelve molecules from ChEMBL document CHEMBL1201862, “PubChem BioAssay data set” (2004) can be followed below.

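Assay format: 96-well plates, 48-hour exposure. GI50 = concentration required for 50% inhibition of growth.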 The source made the active and inactive calls. Cut-off read from the data, not from the text of the source: active = GI50 up to about 1.1 µM and inactive = higher.

Some test systems named below: M14; 786-0; A549; LOX IMVI; LXFL 529; TK-10; K562; CCRF-CEM; HCT-116; MOLT-4; OVCAR-4; SK-OV-3; Malme-3M; SF-295; COLO 205; KM12; RXF 393; NCI/ADR-RES; BT-549; MDA-N.
Holding throughout (experiment): growth of human tumour cells (NCI), 48 h

`CC1(C)OC(=O)C(=Cc2ccc(O)cc2)C(=O)O1`: the GI50 in the assay with M14, in the assay on 786-0, in the assay on A549, in the assay on LOX IMVI, in the assay on LXFL 529 and in the assay on TK-10 was > 100 µM (inactive) in each case. Also, the GI50 in the assay with K562, in the assay with CCRF-CEM, in the assay with HCT-116, in the assay with MOLT-4, with OVCAR-4 and in the assay with SK-OV-3 was > 100 µM (inactive) each time. For the same molecule, the GI50 with Malme-3M, with SF-295, with COLO 205 and in the assay with KM12 was > 100 µM (inactive) in each case.

As for `CC1=C(C(=O)Nc2ccc(Cl)c(Cl)c2)C(c2ccco2)C(C(=O)Nc2ccc(Cl)c(Cl)c2)=C(C)N1`, the GI50 in the assay with M14 is 6.14 µM (inactive); with 786-0, 13 µM (inactive); in the assay with A549 it was 12.5 µM (inactive); with LXFL 529, 11.9 µM (inactive); with TK-10, 6.44 µM (inactive); in the assay on K562, 7.06 µM (inactive). Further, the GI50 is 6.58 µM (inactive) with CCRF-CEM; 9.84 µM (inactive) in the assay with HCT-116; 4.98 µM (inactive) in the assay on MOLT-4; 12.1 µM (inactive) with OVCAR-4; 13.5 µM (inactive) in the assay with SK-OV-3; 14.8 µM (inactive) in the assay on Malme-3M. Further, the GI50 with SF-295 is 7.91 µM (inactive); with COLO 205 it was 12.9 µM (inactive); in the assay on KM12 it was 13.4 µM (inactive).

For the molecule `CC(=O)N(C(C)=O)C1=C2c3ccccc3N(S(=O)(=O)c3ccccc3)C2n2c(=O)n(-c3ccccc3)c(=O)n2C1` (stereo not given), the GI50 in the assay with M14 was 27.3 µM (inactive); in the assay with 786-0, 38.6 µM (inactive); with A549, 65.6 µM (inactive); in the assay on LOX IMVI, 29.9 µM (inactive); in the assay with LXFL 529 it was 39.7 µM (inactive); with TK-10 it was 36.8 µM (inactive). Moreover, the GI50 with K562 is 40.1 µM (inactive); in the assay with CCRF-CEM, 35 µM (inactive); in the assay with HCT-116 it was 43.3 µM (inactive); with SK-OV-3 it was 32.8 µM (inactive); in the assay on Malme-3M, 20.9 µM (inactive); in the assay with SF-295 it was 31.8 µM (inactive). The GI50 in the assay on COLO 205 is 30.7 µM (inactive); in the assay on KM12 it was 34.7 µM (inactive).

Consider `COc1ccc(N2C(=O)C3C=CC(n4[nH]c(=O)n(Cc5ccccc5)c4=O)CC3C2=O)cc1` (stereo not given), for which the GI50 in the assay on M14, in the assay with 786-0, in the assay with RXF 393, with A549, in the assay with LOX IMVI and in the assay with LXFL 529 was > 100 µM (inactive) throughout. Also, the GI50 with TK-10, with K562, with CCRF-CEM, in the assay with HCT-116, in the assay on MOLT-4 and with SK-OV-3 was > 100 µM (inactive) throughout. In addition, the GI50 in the assay with Malme-3M, in the assay on SF-295, in the assay with COLO 205 and in the assay on KM12 was > 100 µM (inactive) throughout.

As for `NC(=O)N/N=C(/Cc1nc2ccc(C(=O)c3ccccc3)cc2nc1O)C(=O)Nc1ccc(C(F)(F)F)cc1[N+](=O)[O-]`, the GI50 in the assay with M14 is 85.9 µM (inactive); with 786-0, > 100 µM (inactive); in the assay with A549 it was > 100 µM (inactive); in the assay with LOX IMVI it was 79.4 µM (inactive); in the assay on LXFL 529 it was 45.5 µM (inactive); with TK-10, > 100 µM (inactive). For the same molecule, the GI50 is 39.6 µM (inactive) in the assay on K562; 36.5 µM (inactive) in the assay on CCRF-CEM; > 100 µM (inactive) with HCT-116; 6.1 µM (inactive) with MOLT-4; > 100 µM (inactive) in the assay with OVCAR-4; 84.1 µM (inactive) in the assay on SK-OV-3. Besides, the GI50 in the assay on Malme-3M was > 100 µM (inactive); with SF-295 it was 74.8 µM (inactive); in the assay on COLO 205, 25.5 µM (inactive); with KM12 it was 84.5 µM (inactive).

On to `Nc1ccc(/C=C/c2ccnc3ccccc23)cc1`, for which the GI50 in the assay on M14 is 20.2 µM (inactive); in the assay with 786-0, 18.6 µM (inactive); in the assay with A549, 19.4 µM (inactive); in the assay with LXFL 529 it was 19.7 µM (inactive); in the assay with TK-10, 17.4 µM (inactive); in the assay on K562 it was 12.7 µM (inactive). For the same molecule, the GI50 is 12.1 µM (inactive) in the assay with CCRF-CEM; 17.5 µM (inactive) with HCT-116; 7.76 µM (inactive) with MOLT-4; 30 µM (inactive) in the assay with OVCAR-4; 30.3 µM (inactive) with Malme-3M; 16.1 µM (inactive) in the assay on SF-295. The GI50 was 22.9 µM (inactive) in the assay on COLO 205 and 16.2 µM (inactive) in the assay with KM12.

`COC1OC(C)C(OCc2ccccc2)C(OS(=O)(=O)c2ccc(C)cc2)C1OS(=O)(=O)c1ccc(C)cc1` (stereo not given): the GI50 with M14, in the assay on 786-0, in the assay on RXF 393, in the assay with A549, with LXFL 529 and with K562 was > 100 µM (inactive) throughout. In addition, the GI50 in the assay on CCRF-CEM, in the assay with HCT-116, with MOLT-4, in the assay with OVCAR-4, in the assay with SK-OV-3 and in the assay on Malme-3M was > 100 µM (inactive) throughout. Also, the GI50 in the assay on SF-295, in the assay on COLO 205 and in the assay with KM12 was > 100 µM (inactive) throughout.

`O=c1[nH]c2c(c(=O)[nH]1)SSC2`: the GI50 in the assay with M14 is 2 µM (inactive); in the assay with 786-0 it was 4.89 µM (inactive); with NCI/ADR-RES it was 2.75 µM (inactive); in the assay with RXF 393 it was 14.5 µM (inactive); in the assay on A549 it was 25.9 µM (inactive); in the assay with LOX IMVI, 1.34 µM (inactive). The GI50 with TK-10 is 16 µM (inactive); with K562 it was 0.74 µM (active); with CCRF-CEM, 0.46 µM (active); with HCT-116 it was 3.14 µM (inactive); with MOLT-4, 1.3 µM (inactive); in the assay with BT-549, 2.25 µM (inactive). Moreover, the GI50 is 17.3 µM (inactive) in the assay on OVCAR-4; 21.4 µM (inactive) in the assay on SK-OV-3; 3.9 µM (inactive) with Malme-3M; 18.5 µM (inactive) with SF-295; 21.4 µM (inactive) in the assay on COLO 205; 17.9 µM (inactive) in the assay with KM12. Further, the GI50 with MDA-N is 1.66 µM (inactive).

In the case of `CCOC(=O)C1(C(=O)OCC)CN(CC)CN(c2ccccc2)C1`, the GI50 in the assay with M14 was 19.1 µM (inactive); with 786-0, 19.8 µM (inactive); with NCI/ADR-RES, 45.6 µM (inactive); with RXF 393 it was 17.1 µM (inactive); with A549, 22.2 µM (inactive); with LOX IMVI, 91.2 µM (inactive). In addition, the GI50 in the assay with TK-10 is 19 µM (inactive); in the assay with K562, 39.4 µM (inactive); with CCRF-CEM it was 16.2 µM (inactive); in the assay on HCT-116 it was 48.3 µM (inactive); in the assay with MOLT-4 it was 18.3 µM (inactive); in the assay on BT-549, 20.8 µM (inactive). In addition, the GI50 in the assay with OVCAR-4 was 25.1 µM (inactive); in the assay on SK-OV-3, > 100 µM (inactive); in the assay with Malme-3M it was 38.3 µM (inactive); in the assay with SF-295, > 100 µM (inactive); with COLO 205, 18.2 µM (inactive); in the assay on KM12, > 100 µM (inactive). The GI50 in the assay on MDA-N is 35.6 µM (inactive).

In the case of `N#CCC(=O)Nc1ccccc1O`, the GI50 in the assay on M14, with 786-0, in the assay with RXF 393, with A549, in the assay with LXFL 529 and with TK-10 was > 100 µM (inactive) throughout. Moreover, the GI50 in the assay on K562, in the assay with CCRF-CEM, in the assay with HCT-116, in the assay with MOLT-4, with OVCAR-4 and in the assay on SK-OV-3 was > 100 µM (inactive) throughout. In addition, the GI50 with Malme-3M, in the assay on SF-295, with COLO 205 and in the assay with KM12 was > 100 µM (inactive) throughout.

As to `O=C(OC[C@H]1O[C@@H](OC(=O)c2cc(O)c(O)c(O)c2)[C@H](OC(=O)c2cc(O)c(O)c(O)c2)[C@@H](OC(=O)c2cc(O)c(O)c(O)c2)[C@@H]1OC(=O)c1cc(O)c(O)c(O)c1)c1cc(O)c(O)c(O)c1` [PENTAGALLOYL GLUCOSE], the GI50 with M14 is 7.23 µM (inactive); in the assay with 786-0, 4.99 µM (inactive); in the assay on RXF 393, 7.73 µM (inactive); with A549 it was 3.54 µM (inactive); in the assay on LOX IMVI, 1.72 µM (inactive); in the assay with LXFL 529, 11.4 µM (inactive). The GI50 was 4.88 µM (inactive) in the assay on TK-10; 47.2 µM (inactive) with K562; 3.33 µM (inactive) in the assay on CCRF-CEM; 5.11 µM (inactive) in the assay with HCT-116; 3 µM (inactive) in the assay on MOLT-4; 8.91 µM (inactive) with OVCAR-4. The GI50 is 6.17 µM (inactive) with SK-OV-3, 3.92 µM (inactive) in the assay on SF-295, 4.98 µM (inactive) in the assay on COLO 205 and 2.34 µM (inactive) in the assay with KM12.

For the molecule `C=CCNC1=C2C[C@@H](C)C[C@H](OC)[C@H](O)[C@@H](C)/C=C(\C)[C@H](OC(N)=O)[C@@H](OC)/C=C\C=C(/C)C(=O)NC(=CC1=O)C2=O` [TANESPIMYCIN], the GI50 is 0.0214 µM (active) with M14; 0.0638 µM (active) with 786-0; 5.69 µM (inactive) in the assay on NCI/ADR-RES; 0.0813 µM (active) in the assay on RXF 393; 0.0369 µM (active) in the assay with A549; 0.0186 µM (active) with LOX IMVI. Besides, the GI50 in the assay on TK-10 is 0.0881 µM (active); with K562, 0.0405 µM (active); in the assay on CCRF-CEM, 0.493 µM (active); with HCT-116, 0.0311 µM (active); in the assay on MOLT-4 it was 0.527 µM (active); in the assay with BT-549, 5.73 µM (inactive). Moreover, the GI50 in the assay on OVCAR-4 was 4.39 µM (inactive); with SK-OV-3, 0.0262 µM (active); in the assay with Malme-3M, 0.0619 µM (active); in the assay with SF-295 it was 0.0745 µM (active); with COLO 205, 0.0124 µM (active); in the assay with KM12 it was 0.0165 µM (active). In the assay with MDA-N, the GI50 was 0.0199 µM (active).
